Laboratory results from patent US20260083769A1, “2-Aminopropane-1,3-Diol-Capped Cationic Peptoids for Nucleic Acid Delivery” (NUTCRACKER THERAPEUTICS, INC., priority 2022, published 2026).
Entries after “also recorded” stand apart in the source; their conditions may differ. Where two headings read alike, the source gives them in different places. Where a SMILES comes first, the peptide text is derived from it. [ ]: non-standard residue; d: D form. N(2-ethylhexyl)Gly = CCCCC(CC)CNCC(=O)O; Gly(N-dodecyl) = CCCCCCCCCCCCNCC(=O)O; N(CH(CH2OH)2)Gly = O=C(O)CNC(CO)CO; NHexGly = CCCCCCNCC(=O)O

Columns and labels:
[1] = Particle size and polydispersity (PDI) of delivery vehicles by dynamic light scattering; type: physicochemical; conditions: Table 5; delivery vehicle comprising the peptoid, Formulation D22, fLuc mRNA
Method in brief: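 Dynamic light scattering of formulated samples diluted to 2 ng/μL in PBS. Size reported as hydrodynamic diameter (nm) from cumulant fit of the correlation function, with its polydispersity index.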

[2] = Apparent particle pKa, TNS fluorescence assay; type: physicochemical; conditions: Table 5; apparent particle pKa of delivery vehicle
Experimental: The apparent particle pKa was assessed by a TNS fluorescence assay. Briefly, particles were diluted to 130 uM total lipid in TNS buffer ranging in pH 3-11 for 10 minutes with […] of TNS probe. The fluorescence was measured at room temperature in a plate reader ex 320/em 445. Fluorescence intensity was normalized to the minimal and maximal values and the pKa was determined by a 3 parameter fit to determine the half maximum of the curve.

[3] = Percent encapsulated mRNA, RiboGreen assay; type: physicochemical; conditions: Table 5; delivery vehicle comprising the peptoid, Formulation D22, fLuc mRNA
Method in brief: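 Modified RiboGreen fluorescence assay on Fluc mRNA formulations diluted to 500 ng/ml in Tris-EDTA. Samples were read with and without Triton X-100 lysis (2% for 10 min in one protocol). Percent encapsulation was derived from the fluorescence ratio of intact versus lysed particles.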

[4] = Zeta potential of delivery vehicles; type: physicochemical; conditions: Table 5; delivery vehicle, pH 7 buffer; in mV (unit assumed)
Experimental: In one particular instance, the size and polydispersity (PDI) of delivery vehicles was measured by dynamic light scattering in PBS using a DynaPro® plate reader III. The zeta potential of delivery vehicles was determined using Nano-ZS™ particle analyzer. Zeta sample was diluted to 30 uM total lipid in a weakly buffered solution of 10 mM HEPES, 10 mM MES, 10 mM ammonium acetate pH 7. Measurements were collected in duplicate for over 30 run with the voltage manually set to […]

[5] = RBC hemolysis as metric for fusogenicity; type: cell-based; conditions: sheep red blood cells (RBCs), 5% v/v, Table 5, delivery vehicle, 37° C. 45 min
Method in brief: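 Sheep RBCs at 5% v/v in 20 mM citrate/140 mM NaCl pH 5.5 or PBS, exposed to LNPs at […] in well, 37 °C for 45 min. Supernatant absorbance at 425 nm; % hemolysis normalized to 2% Triton full lysis and buffer-only control.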

BALB/c mice = assay: Serum anti-RSV antibody (aRSV) after IV dose of aRSV mRNA delivery vehicles, IgG ELISA; type: in vivo; conditions: for serum levels of aRSV (secreted protein expression): BALB/c mice, IV, 0.75 mg/kg mRNA, after 24 hours, IgG ELISA; for secreted protein (serum aRSV) expression in vivo, comparison of monomer order isomers: Compound 31 versus Compound 41
Experimental: For imaging studies, female BALB/c mice (6-8 weeks old) were obtained and acclimatized for a minimum of 3 days prior to experiments. The animals were maintained on a 12 hour light cycle in a temperature and humidity controlled room. A daily health check was performed as well as food and water check. For dosing, mice were injected with 2.5 μg fLuc mRNA-containing delivery vehicles intravenously in 100 μL total injection volume. At 6 hours post-injection, mice were anesthetized with isoflurane, and injected intraperitoneally with 30 mg/mL D-luciferin at a dose of 10 μL per gram bodyweight intraperitoneally. Imaging was done 10 minutes post D-luciferin injection using an IVIS® Spectrum Imaging System. Immediately after in vivo imaging, mice were terminally bled by cardiac puncture and euthanized. The organs of interest were harvested, placed in black 24-well plates, and imaged. Living Image® software was used to quantify the total photon flux in regions of interest. For secreted protein studies, mice were injected with aRSV mRNA-containing delivery vehicles intravenously in 100 μL total injection volume. Mice were euthanized after 24 hours, with serum collection at 6 and 24 hours post-injection. Serum was used to quantify secreted aRSV levels using ELISA following the manufacturer's recommendation for IgG using a standard curve generated from aRSV protein.
To understand how the delivery vehicles disclosed herein (e.g., delivery vehicles comprising compounds of Formula (I)) performed as systemic delivery vehicles, the top four candidates for firefly luciferase expression from the optimized DOE model (Compounds 12, 41, 34, and 35) were evaluated for their ability to produce anti-RSV antibody in BALB/c mice. Anti-RSV was chosen as a model target due to the availability of therapeutic benchmarking information and sequence availability. Delivery vehicles comprising aRSV were formulated from two mRNA molecules encoding the heavy and light chain at a 2:1 mass ratio. All delivery vehicles were below 120 nm in size with encapsulation greater than 85% (Table 7).
Delivery vehicles were dosed intravenously in BALB/c mice at a total dose of 0.75 mg/kg mRNA and serum levels of aRSV were compared after 24 hours by an IgG ELISA.

[6] = pH 5, read-out: Hemolysis at pH 5
[7] = pH 7, read-out: Hemolysis at pH 7

Row | SMILES | PDI [1] | Particle Size (nm) [1] | pKa (TNS) [2] | % Encapsulation [3] | Zeta Potential [4] | hemolysis at 45 min, 150 mM total lipid [5, 6] | hemolysis at 45 min, 150 mM total lipid [5, 7] | serum levels of aRSV (secreted protein expression) (BALB/c mice) | secreted protein (serum aRSV) expression in vivo, comparison of monomer order isomers (BALB/c mice) | serum levels of aRSV (secreted protein expression) (BALB/c mice; 0.75 mg/kg) | dependence of serum aRSV titers on injected dose (BALB/c mice; Compound 41 in Formulation D22, 0.3, 0.75, and 1.5 mg/kg) | time aRSV titers were observed in the serum (BALB/c mice; Compound 41 in Formulation D22, mice, post-dosing)
1 | CCCCCCN(CC(N)=O)C(=O)CN(CC(CC)CCCC)C(=O)CN(CC(CC)CCCC)C(=O)CN(CCCCCC)C(=O)CN(CC(CC)CCCC)C(=O)CN(CC(CC)CCCC)C(=O)CNC(CO)CO (centres unmarked) [Compound 12] (H-[N(CH(CH2OH)2)Gly][N(2-ethylhexyl)Gly][N(2-ethylhexyl)Gly][NHexGly][N(2-ethylhexyl)Gly][N(2-ethylhexyl)Gly][NHexGly]-NH2) | 0.32 | 91.4 nm | 6.018 | 97.4% | −8.68 | 52.1% | 1.5% | lowest aRSV expression of the top 4 candidates | – | – | – | –
2 | CCCCCCCCCCCCN(CC(=O)N(CC(=O)N(CC(=O)N(CCCCCCCCCCCC)CC(=O)N(CC(=O)N(CC(N)=O)CC(CC)CCCC)CC(CC)CCCC)CC(CC)CCCC)CC(CC)CCCC)C(=O)CNC(CO)CO (centres unmarked) [Compound 31] (H-[N(CH(CH2OH)2)Gly][Gly(N-dodecyl)][N(2-ethylhexyl)Gly][N(2-ethylhexyl)Gly][Gly(N-dodecyl)][N(2-ethylhexyl)Gly][N(2-ethylhexyl)Gly]-NH2) | 0.1 | 80.8 nm | 6.523 | 86.9% | −11.2 | 5.8% | 2% | – | within error | – | – | –
3 | CCCCCCCCCCCCN(CC(=O)N(CC(N)=O)CC(CC)CCCC)C(=O)CN(CCCCCC)C(=O)CN(CC(CC)CCCC)C(=O)CN(CCCCCCCCCCCC)C(=O)CN(CCCCCC)C(=O)CNC(CO)CO (centres unmarked) [Compound 34] (H-[N(CH(CH2OH)2)Gly][NHexGly][Gly(N-dodecyl)][N(2-ethylhexyl)Gly][NHexGly][Gly(N-dodecyl)][N(2-ethylhexyl)Gly]-NH2) | 0.093 | 118.4 nm | 6.374 | 71.2% | −9.58 | 11.8% | 27.6% | highest levels of secreted protein expression | – | – | – | –
4 | CCCCCCCCCCCCN(CC(=O)N(CC(=O)N(CC(=O)N(CCCCCCCCCCCC)CC(=O)N(CC(N)=O)CC(CC)CCCC)CC(CC)CCCC)CC(CC)CCCC)C(=O)CN(CC(CC)CCCC)C(=O)CNC(CO)CO (centres unmarked) [Compound 41] (H-[N(CH(CH2OH)2)Gly][N(2-ethylhexyl)Gly][Gly(N-dodecyl)][N(2-ethylhexyl)Gly][N(2-ethylhexyl)Gly][Gly(N-dodecyl)][N(2-ethylhexyl)Gly]-NH2) | 0.15 | 75.7 nm | 6.068 | 94.2% | −5.38 | 4.5% | 2.9% | – | within error | highest levels of secreted protein expression; also recorded: highest overall aRSV titers | generally linear dependence on injected dose | > 5 days
